How the values were obtained:
D. immitis microfilariae = assay: Dirofilaria immitis, microfilariae (DiMF) in vitro motility assay; type: cell-based; settings: Dirofilaria immitis, 72 h, read-out: DiMF minimally effective dose (MEC)
Haemonchus contortus L3 = assay: microbe, parasite or virus in culture; type: cell-based; settings: Haemonchus contortus, 96 h, read-out: HcL3 Minimal Effective Concentration (MEC)

| Compound | minimal effective concentration (D. immitis microfilariae) | minimal effective concentration (Haemonchus contortus L3) |
| --- | --- | --- |
| N#Cc1ccc2c(c1)c1c(n2C(=O)NCc2ccnc(F)c2)CCN(C/C=C/c2cc(F)cc(F)c2)C1 [Example 117, (E)-8-cyano-2-(3-(3,5-difluorophenyl)allyl)-N-((2-fluoropyridin-4-yl)methyl)-1,2,3,4-tetrahydro-5H-pyrido[4,3-b]indole-5-carboxamide] | 1.8 µM | 0.2 µM |
| O=C(NCc1ccnc(Cl)c1)n1c2c(c3cc(F)c(Cl)cc31)CN(C/C=C/c1ccc(Cl)cc1)CC2 [Example 304, (E)-7-chloro-2-(3-(4-chlorophenyl)allyl)-N-((2-chloropyridin-4-yl)methyl)-8-fluoro-1,2,3,4-tetrahydro-5H-pyrido[4,3-b]indole-5-carboxamide] | 18.2 µM | 0.3 µM |
| O=C(NCc1ccnc(Cl)c1)n1c2c(c3c(C(F)(F)F)cc(F)cc31)CN(C/C=C/c1ccc(Cl)cc1)CC2 [Example 322, (E)-2-(3-(4-chlorophenyl)allyl)-N-((2-chloropyridin-4-yl)methyl)-7-fluoro-9-(trifluoromethyl)-1,2,3,4-tetrahydro-5H-pyrido[4,3-b]indole-5-carboxamide] | 10 µM | 5.7 µM |
| N#Cc1ccc2c(c1)c1c(n2C(=O)NCc2ccnc(O)c2)CCN(C/C=C/c2cc(Cl)c(F)c(Cl)c2)C1 [Example 452, (E)-8-cyano-2-(3-(3,5-dichloro-4-fluorophenyl)allyl)-N-((2-hydroxypyridin-4-yl)methyl)-1,2,3,4-tetrahydro-5H-pyrido[4,3-b]indole-5-carboxamide] | > 100 µM | > 100 µM |
| Cc1ccc2c(c1)c1c(n2C(=O)NCc2ccnc(Cl)c2)CCN(C/C=C/c2ccc(C#N)cc2)C1 [Example 430, (E)-N-((2-chloropyridin-4-yl)methyl)-2-(3-(4-cyanophenyl)allyl)-8-methyl-1,2,3,4-tetrahydro-5H-pyrido[4,3-b]indole-5-carboxamide] | > 100 µM | 1 µM |
| O=C(NCc1ccnc(Cl)c1)n1c2c(c3ccc(Cl)cc31)CN(C/C=C/c1ccc(Cl)c(F)c1)CC2 [Example 205, (E)-7-chloro-2-(3-(4-chloro-3-fluorophenyl)allyl)-N-((2-chloropyridin-4-yl)methyl)-1,2,3,4-tetrahydro-5H-pyrido[4,3-b]indole-5-carboxamide] | 18.2 µM | 1 µM |
| N#Cc1ccc2c(c1)c1c(n2C(=O)NCc2ccnc(Cl)c2)CCN(C/C=C/c2ccc(Cl)cc2F)C1 [Example 75, (E)-2-(3-(4-chloro-2-fluorophenyl)allyl)-N-((2-chloropyridin-4-yl)methyl)-8-cyano-1,2,3,4-tetrahydro-5H-pyrido[4,3-b]indole-5-carboxamide] | 10.2 µM | 0.1 µM |
| O=C(NCc1ccnc(Cl)c1)n1c2c(c3cc(OC(F)(F)F)ccc31)CN(C/C=C/c1ccc(F)c(F)c1)CC2 [Example 389, (E)-N-((2-chloropyridin-4-yl)methyl)-2-(3-(3,4-difluorophenyl)allyl)-8-(trifluoromethoxy)-1,2,3,4-tetrahydro-5H-pyrido[4,3-b]indole-5-carboxamide] | 10 µM | 0.5 µM |
| O=C(NCc1ccnc(Cl)c1)n1c2c(c3cc(OC(F)(F)F)c(Br)cc31)CN(C/C=C/c1ccc(Cl)cc1)CC2 [Example 497, (E)-7-bromo-2-(3-(4-chlorophenyl)allyl)-N-((2-chloropyridin-4-yl)methyl)-8-(trifluoromethoxy)-1,2,3,4-tetrahydro-5H-pyrido[4,3-b]indole-5-carboxamide] | 5.7 µM | 1 µM |
| O=C(NCc1cnc(Cl)s1)n1c2c(c3cc(OC(F)(F)F)ccc31)CN(C/C=C/c1ccc(Cl)cc1)CC2 [Example 409, (E)-2-(3-(4-chlorophenyl)allyl)-N-((2-chlorothiazol-5-yl)methyl)-8-(trifluoromethoxy)-1,2,3,4-tetrahydro-5H-pyrido[4,3-b]indole-5-carboxamide] | 10 µM | 1 µM |
| N#Cc1ccc2c3c(n(C(=O)NCc4ccnc(Cl)c4)c2c1)CCN(C/C=C/c1c(F)c(F)c(F)c(F)c1F)C3 [Example 16, (E)-N-((2-chloropyridin-4-yl)methyl)-7-cyano-2-(3-(perfluorophenyl)allyl)-1,2,3,4-tetrahydro-5H-pyrido[4,3-b]indole-5-carboxamide] | > 100 µM | > 100 µM |
| O=C(NCc1ccnc(Cl)c1)n1c2c(c3c(Cl)cccc31)CN(C/C=C/c1ccc(Cl)c(Cl)c1)CC2 [Example 216, (E)-9-chloro-N-((2-chloropyridin-4-yl)methyl)-2-(3-(3,4-dichlorophenyl)allyl)-1,2,3,4-tetrahydro-5H-pyrido[4,3-b]indole-5-carboxamide] | 18.2 µM | 1 µM |
| N#Cc1ccc2c3c(n(C(=O)NCc4ccnc(F)c4)c2c1)CCN(C/C=C/c1ccc(Cl)cc1)C3 [Example 55, (E)-2-(3-(4-chlorophenyl)allyl)-7-cyano-N-((2-fluoropyridin-4-yl)methyl)-1,2,3,4-tetrahydro-5H-pyrido[4,3-b]indole-5-carboxamide] | 10 µM | > 100 µM |
| N#Cc1ccc2c(c1)c1c(n2C(=O)NCc2ccnc(F)c2)CCN(C/C=C/c2cccc(F)c2F)C1 [Example 119, (E)-8-cyano-2-(3-(2,3-difluorophenyl)allyl)-N-((2-fluoropyridin-4-yl)methyl)-1,2,3,4-tetrahydro-5H-pyrido[4,3-b]indole-5-carboxamide] | 18.2 µM | 3.3 µM |
| N#Cc1ccc2c(c1)c1c(n2C(=O)NCc2ccnc(Cl)c2)CCN(C/C=C/c2cc(F)c(F)c(F)c2)C1 [Example 89, (E)-N-((2-chloropyridin-4-yl)methyl)-8-cyano-2-(3-(3,4,5-trifluorophenyl)allyl)-1,2,3,4-tetrahydro-5H-pyrido[4,3-b]indole-5-carboxamide] | 1 µM | 0.1 µM |
| O=C(NCc1ccnc(Cl)c1)n1c2c(c3cc(Cl)ccc31)CN(C/C=C/c1ccc(Cl)cc1F)CC2 [Example 233, (E)-8-chloro-2-(3-(4-chloro-2-fluorophenyl)allyl)-N-((2-chloropyridin-4-yl)methyl)-1,2,3,4-tetrahydro-5H-pyrido[4,3-b]indole-5-carboxamide] | 1.8 µM | 0.01 µM |
| O=C(NCc1ccnc(Cl)c1)n1c2c(c3cccc(Cl)c31)CN(C/C=C/c1ccc(Cl)c(Cl)c1)CC2 [Example 268, (E)-6-chloro-N-((2-chloropyridin-4-yl)methyl)-2-(3-(3,4-dichlorophenyl)allyl)-1,2,3,4-tetrahydro-5H-pyrido[4,3-b]indole-5-carboxamide] | 10 µM | > 100 µM |
| O=C(NCc1ccnc(Cl)c1)n1c2c(c3cc(Br)ccc31)CN(C/C=C/c1ccc(F)c(Cl)c1)CC2 [Example 182, (E)-8-bromo-2-(3-(3-chloro-4-fluorophenyl)allyl)-N-((2-chloropyridin-4-yl)methyl)-1,2,3,4-tetrahydro-5H-pyrido[4,3-b]indole-5-carboxamide] | > 100 µM | 1 µM |
